Measured values taken from US8563723B2, “Arylsulfonyl pyrazoline carboxamidine derivatives as 5-HT6 antagonists” (Abbott Healthcare Products, B.V., priority 2008, dated 2013).

Experiments:
5-HT6 receptor [1] = biological target: T1, 5-HT6 receptor (Homo sapiens, UniProt P50406); test: In vitro affinity for human 5-HT6 receptors ([3H]-LSD binding, CHO cell membranes); parameters: host or cells: CHO/Gα16/mtAEQ/h5HT6-A1 cells; conditions: [3H]-LSD, membranes of CHO cells with human 5-HT6; main compound table; read-out: 5-HT6 pKi (converted)
T1 sequence (P50406 whole entry): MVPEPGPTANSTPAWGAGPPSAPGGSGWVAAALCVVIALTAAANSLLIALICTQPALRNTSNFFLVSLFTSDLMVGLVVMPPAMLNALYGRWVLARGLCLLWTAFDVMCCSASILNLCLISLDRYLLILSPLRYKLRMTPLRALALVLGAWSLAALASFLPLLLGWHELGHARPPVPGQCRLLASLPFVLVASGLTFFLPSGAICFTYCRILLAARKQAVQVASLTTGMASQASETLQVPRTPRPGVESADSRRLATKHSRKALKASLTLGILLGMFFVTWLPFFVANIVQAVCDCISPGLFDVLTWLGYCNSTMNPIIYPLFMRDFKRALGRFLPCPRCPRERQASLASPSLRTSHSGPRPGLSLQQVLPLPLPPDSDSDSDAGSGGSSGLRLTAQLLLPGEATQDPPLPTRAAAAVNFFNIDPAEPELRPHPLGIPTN

5-HT6 receptor [2] = biological target: T1, 5-HT6 receptor; test: In vitro functional activity ((ant)agonism) on human 5-HT6 receptors, CHO-human-5HT6-Aequorin assay; format: cell-based; parameters: host or cells: CHO AequoScreen recombinant cell line (expresses mitochondrial targeted apo-Aequorin); conditions: antagonism of 10^-8 M α-methylserotonin induced luminescence, main compound table; for Kb: read-out: 5-HT6 pA2 (converted)

Structure (SMILES)	Ki (5-HT6 receptor [1])	Kb (5-HT6 receptor [2])	5-HT6 pA2 (5-HT6 receptor [2])
CCN/C(=N\S(=O)(=O)c1ccc(N)cc1)N1CC(CC)C=N1 (single isomer, unassigned) [Compound 2]	0.01 µM	–	–
CCN/C(=N\S(=O)(=O)c1ccc(N)c(Cl)c1)N1CC(CC)C=N1 (single isomer, unassigned) [Compound 12]	0.00158 µM	0.001 µM	–
CCN/C(=N\S(=O)(=O)c1ccc(O)cc1)N1CC(CC)C=N1 (single isomer, unassigned) [Compound 20]	0.002 µM	0.001 µM	–
CCN/C(=N\S(=O)(=O)c1ccc(N)cc1)N1CC2(C=N1)CCOCC2 [Compound 7]	0.0631 µM	0.0251 µM	–
CN/C(=N\S(=O)(=O)c1ccc(N)cc1)N1CC2(C=N1)CCOCC2 [Compound 8]	0.2 µM	0.158 µM	–
CCN/C(=N\S(=O)(=O)c1ccc2[nH]ccc2c1)N1CC(CC)C=N1 (stereo not shown) [Compound 18, 1H-Indole-5-sulfonic acid ethylamino-(4-ethyl-4,5-dihydro-pyrazol-1-yl)-methyleneamide]	0.00398 µM	–	–
CCN/C(=N\S(=O)(=O)c1ccc(CO)cc1)N1CC2(C=N1)CCCC2 [Compound 40, N-[(2,3-Diaza-spiro[4.4]non-3-en-2-yl)-ethylamino-methylene]-4-hydroxymethyl-benzenesulfonamide]	0.631 µM	–	–
CCN/C(=N\S(=O)(=O)c1ccc2[nH]ccc2c1)N1CC2(C=N1)CCNCC2 [Compound 49]	–	–	8.8
CCN/C(=N\S(=O)(=O)c1ccc2c(c1)CCN2)N1CC(C)(C)C=N1 [Compound 56]	0.0158 µM	–	–
CCN/C(=N\S(=O)(=O)c1ccc2c(c1)CCN2)N1CC2(C=N1)CCCCC2 [Compound 59]	0.00794 µM	–	–
CCN/C(=N\S(=O)(=O)c1ccc2[nH]ccc2c1)N1CC2(C=N1)CCCCC2 [Compound 60]	0.00316 µM	–	–

The remaining lines, values ahead:

Ki (5-HT6 receptor [1])	Kb (5-HT6 receptor [2])	5-HT6 pA2 (5-HT6 receptor [2])	Structure (SMILES)
0.00316 µM	0.002 µM	–	CCN/C(=N\S(=O)(=O)c1ccc(N)cc1)N1CC(CC)C=N1 (single isomer, unassigned) [Compound 1]
0.001 µM	0.000501 µM	–	CCN/C(=N\S(=O)(=O)c1ccc(N)c(Cl)c1)N1CC(CC)C=N1 (single isomer, unassigned) [Compound 11]
0.01 µM	0.00631 µM	–	CCN/C(=N\S(=O)(=O)c1ccc(O)cc1)N1CC(CC)C=N1 (single isomer, unassigned) [Compound 21]
0.1 µM	0.0794 µM	–	N/C(=N\S(=O)(=O)c1ccc(N)cc1)N1CC2(C=N1)CCCC2 [Compound 5]
0.251 µM	0.2 µM	–	N/C(=N\S(=O)(=O)c1ccc(N)cc1)N1CC2(C=N1)CCOCC2 [Compound 9]
0.0126 µM	0.01 µM	–	CCN/C(=N\S(=O)(=O)c1ccc2c(c1)CCN2)N1CC(CC)C=N1 (stereo not shown) [Compound 16, 2,3-Dihydro-1H-indole-5-sulfonic acid ethylamino-(4-ethyl-4,5-dihydro-pyrazol-1-yl)-methyleneamide]
0.01 µM	–	–	CCN/C(=N\S(=O)(=O)c1ccc(O)c(Cl)c1)N1CC(CC)C=N1 (stereo not shown) [Compound 26, 3-Chloro-N-[ethylamino-(4-ethyl-4,5-dihydro-pyrazol-1-yl)-methylene]-4-hydroxy-benzenesulfonamide]
0.0158 µM	0.0251 µM	–	CCN/C(=N\S(=O)(=O)c1ccc(O)c(Cl)c1)N1CC(C)(C)C=N1 [Compound 27]
0.501 µM	–	–	CCN/C(=N\S(=O)(=O)c1ccc2c(c1)NCC2)N1CC(CC)C=N1 (stereo not shown) [Compound 33, 2,3-Dihydro-1H-indole-6-sulfonic acid ethylamino-(4-ethyl-4,5-dihydro-pyrazol-1-yl)-methyleneamide]
–	–	8.6	CCN/C(=N\S(=O)(=O)c1ccc(N)cc1)N1CC2(C=N1)CCNCC2 [Compound 47, 4-Amino-N-[ethylamino-(2,3,8-triaza-spiro[4.5]dec-3-en-2-yl)-methylene]-benzenesulfonamide]
0.0126 µM	–	–	CCN/C(=N\S(=O)(=O)c1ccc(O)cc1)N1CC2(C=N1)CCNCC2 [Compound 50]
–	0.0002 µM	–	CCN/C(=N\S(=O)(=O)c1cc(O)cc(Cl)c1)N1CC2(C=N1)CCCCC2 [Compound 55]
